In one assay the target is T1, BRD9 (Homo sapiens, UniProt Q9H8M2).
T1 construct: Western blot analysis of BRD9 and BRD7 levels after treatment of HeLa cells; endogenous in cells; host or cells: HeLa
T1 sequence (Q9H8M2 1-597): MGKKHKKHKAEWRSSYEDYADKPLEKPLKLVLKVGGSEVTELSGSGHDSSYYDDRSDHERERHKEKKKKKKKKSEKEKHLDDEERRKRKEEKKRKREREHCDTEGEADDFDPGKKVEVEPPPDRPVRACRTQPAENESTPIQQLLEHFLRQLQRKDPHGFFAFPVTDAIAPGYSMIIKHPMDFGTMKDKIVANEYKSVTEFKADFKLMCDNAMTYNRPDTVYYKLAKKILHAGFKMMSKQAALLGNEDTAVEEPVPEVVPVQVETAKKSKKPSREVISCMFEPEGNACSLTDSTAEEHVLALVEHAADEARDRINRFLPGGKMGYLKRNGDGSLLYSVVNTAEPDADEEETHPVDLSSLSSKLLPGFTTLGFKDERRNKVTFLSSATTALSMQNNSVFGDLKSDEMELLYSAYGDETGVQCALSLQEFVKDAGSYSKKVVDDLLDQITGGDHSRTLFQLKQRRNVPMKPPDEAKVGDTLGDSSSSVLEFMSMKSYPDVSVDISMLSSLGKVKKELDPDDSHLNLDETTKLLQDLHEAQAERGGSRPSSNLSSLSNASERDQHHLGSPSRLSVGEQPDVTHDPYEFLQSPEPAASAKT
Kind of assay: Western blot of BRD9 levels in HeLa cells after compound treatment. In kind it is cell-based. The settings on record: 1 μM compound; for remaining activity at 1 µM: Table 2, % of total protein remaining relative to 0.1% DMSO vehicle, HeLa cell lysates; for BRD9 degradation: HeLa cells. In general terms: A western blot detects proteins with antibodies after separation by electrophoresis.

The target in another assay is T2, BRD7 (Homo sapiens, UniProt Q9NPI1).
T2 construct: Western blot analysis of BRD9 and BRD7 levels after treatment of HeLa cells; endogenous in cells; host or cells: HeLa
T2 sequence (Q9NPI1 1-651): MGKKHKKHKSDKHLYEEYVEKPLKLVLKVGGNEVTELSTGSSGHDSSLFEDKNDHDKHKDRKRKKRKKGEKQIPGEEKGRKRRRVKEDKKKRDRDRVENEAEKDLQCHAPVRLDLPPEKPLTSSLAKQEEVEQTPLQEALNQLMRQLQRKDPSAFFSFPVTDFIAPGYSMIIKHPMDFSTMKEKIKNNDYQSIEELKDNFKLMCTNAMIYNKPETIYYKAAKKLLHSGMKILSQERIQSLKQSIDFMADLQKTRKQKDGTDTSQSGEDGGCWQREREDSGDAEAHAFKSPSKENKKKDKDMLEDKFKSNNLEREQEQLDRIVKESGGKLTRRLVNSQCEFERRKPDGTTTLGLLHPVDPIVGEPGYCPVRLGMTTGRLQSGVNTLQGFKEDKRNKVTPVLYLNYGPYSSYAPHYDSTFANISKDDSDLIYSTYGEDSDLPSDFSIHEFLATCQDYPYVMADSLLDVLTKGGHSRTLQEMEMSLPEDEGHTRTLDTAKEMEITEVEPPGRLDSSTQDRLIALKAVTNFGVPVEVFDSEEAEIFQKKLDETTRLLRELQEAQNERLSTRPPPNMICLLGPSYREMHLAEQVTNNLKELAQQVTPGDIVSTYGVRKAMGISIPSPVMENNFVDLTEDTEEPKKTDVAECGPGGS
Kind of assay: Western blot of BRD7 levels in HeLa cells after compound treatment. Type of assay: cell-based. The settings on record: 1 μM compound; for remaining activity at 1 µM: Table 2, % of total protein remaining relative to 0.1% DMSO vehicle, HeLa cell lysates; for BRD7 degradation: HeLa cells. The method, then: HeLa and Hek293 cells were seeded at either 0.3 × 10^6 or 0.5 × 10^6 cells per well in 6-well plate in 2 mL of medium. At 80% confluency, cells were treated with compounds at the desired concentration, with final DMSO concentration of 0.1% v/v. Cells were incubated at 37 °C and 5% of CO2 for the desired time before harvesting. For protein extraction from adherent cells, cells were washed twice with DPBS (Gibco) and lysed with RIPA buffer (Sigma-Aldrich), supplemented with cOmplete Mini EDTA-free protease inhibitor cocktail (Roche). Insoluble material was removed by centrifugation at 14 000 rpm for 15 min at 4 °C. Supernatant was collected and protein concentration was quantified by Bradford assay (Thermo Scientific no. 23200, mean of two replicates). For RI-1 cells, (1–1.5) × 10^6 cells/mL were seeded in 6-well plate in 2 mL of medium. The day after, cells were treated with compounds at the desired concentration, with final DMSO concentration of 0.1% v/v. Before harvesting, cells were incubated at 37 °C and 5% CO2 for the desired time. Cells were washed twice with DPBS (Gibco) and lysed with RIPA buffer (Sigma-Aldrich), supplemented with cOmplete Mini EDTA-free protease inhibitor cocktail (Roche). Lysates were sonicated (10 s) and centrifuged at 14 000 rpm for 20 min at 4 °C. Supernatant was collected, and protein concentration was quantified by Bradford assay (mean of two replicates). For EOL-1 and A-204 cell line, 20 000 cells were seeded in 300 μL per well in a 24-well plate and incubated at 37 °C overnight. Compounds were added from DMSO stock solution using a digital dispenser D300 (Tecan), normalizing for added DMSO, and cells were incubated at 37 °C for 18 h. Medium was removed, and cells were washed with PBS and lysed in 80 μL of lysis buffer (1% Triton, 350 mM KCl, 10 mM Tris, pH 7,4, phosphatase-protease inhibitor cocktail (Thermo Scientific no. 1861281), 10 mM DTT, Benzonase 0.5 μL/ml (Novagen no. 70746 10KU, 25 U/μL)) for 30 min on ice before insoluble debris was pelleted by centrifugation.
Proteins were resolved by SDS–PAGE on NuPage 4–12% Bis-Tris Midi Gel (Invitrogen) and transferred to Amersham Protran 0.45 NC nitrocellulose membrane (GE Healthcare) using wet transfer. The membrane was blocked with 5% w/v milk in Tris-buffered saline (TBS) with 0.1% w/v Tween-20. The following primary antibodies at the given concentration were used: anti β-actin (Cell Signaling Technology, 4970S, 13E5) 1:2000, anti-Brd9 (Bethyl A303-781A) 1:1000, anti-Brd7 (Bethyl A302-304A) 1:1000, VHL rabbit Ab (Cell Signaling Technology, no. 68547S) 1:1000, anti-CRBN (Novus Bio, NBP 1-9-1810) 1:1000, anti-actin hFAB rhodamine antibody, Bio-Rad, no. 12004164. Following incubation with horseradish peroxidase-conjugated secondary antibody (Cell Signaling Technology) or IRDye secondary antibody (Licor), bands were developed using Amersham ECL Prime Western blotting detection kit on Amersham Hyperfilm ECL film (Amersham) or ChemiDoc imaging system (Bio-Rad). ImageJ software was used for band quantification, and the last was reported as relative amount as ratio of each protein band relative to the lane’s loading control. Then the values obtained were normalized to 0.1% DMSO vehicle control. Alternatively, protein levels were determined on a WES capillary electrophoresis instrument (Proteinsimple) using a BRD9 antibody (Bethyl A303-781A) and a GAPDH antibody (Abcam no. ab9485) for normalization. DC50 and half-lives were determined by assuming a linear model between the two data points across 50% protein level mark.

Where two headings read alike, the source gives them in different places. Some results are limits rather than exact numbers.

Data on four molecules can be found in PMC6348446 (Journal of Medicinal Chemistry, 2018).

In the case of `COc1cc(-c2cn(C)c(=O)c3cnccc23)cc(OC)c1CN1CCN(CCOCCOCCOCCOCC(=O)N[C@H](C(=O)N2C[C@H](O)C[C@H]2C(=O)NCc2ccc(-c3scnc3C)cc2)C(C)(C)C)CC1` [Compound 6, (2S,4R)-1-((S)-2-(tert-Butyl)-17-(4-(2,6-dimethoxy-4-(2-methyl-1-oxo-1,2-dihydro-2,7-naphthyridin-4-yl)benzyl)piperazin-1-yl)-4-oxo-6,9,12,15-tetraoxa-3-azaheptadecanoyl)-4-hydroxy-N-(4-(4-methylthiazol-5-yl)benzyl)pyrrolidine-2-carboxamide], the remaining activity at 1 µM at BRD9 (4 h, read-out: BRD9 4 h (%)) was 99%; on BRD7 (4 h, read-out: BRD7 4 h (%)) it was 102%; on BRD7 (16 h, read-out: BRD7 16 h (%)) it was 119%. In addition, the BRD9 degradation result at BRD9 (4 h) is given as “at most 20%”; on BRD9 (16 h), at most 30%. Besides, the BRD7 degradation result on BRD7 (4 h) was “at most 20%”; at BRD7 (16 h), at most 30%.
Turning to `COc1cc(-c2cn(C)c(=O)c3cnccc23)cc(OC)c1CN1CCN(CCOCCOCC(=O)NCCNc2cccc3c2C(=O)N(C2CCC(=O)NC2=O)C3=O)CC1` (stereo not drawn) [Compound 7, 2-(2-(2-(4-(2,6-Dimethoxy-4-(2-methyl-1-oxo-1,2-dihydro-2,7-naphthyridin-4-yl)benzyl)piperazin-1-yl)ethoxy)ethoxy)-N-(2-((2-(2,6-dioxopiperidin-3-yl)-1,3-dioxoisoindolin-4-yl)amino)ethyl)acetamide], the BRD9 degradation entry at BRD9 (4 h) was “strong degradation”. The BRD7 degradation entry at BRD7 (4 h) is reported as “no BRD7 degradation”.
For the molecule `COc1cc(-c2cn(C)c(=O)c3cnccc23)cc(OC)c1CN1CCN(CCOCCOCCOCCOCC(=O)NCCNc2cccc3c2C(=O)N(C2CCC(=O)NC2=O)C3=O)CC1` (stereo not drawn) [Compound 8, 14-(4-(2,6-Dimethoxy-4-(2-methyl-1-oxo-1,2-dihydro-2,7-naphthyridin-4-yl)benzyl)piperazin-1-yl)-N-(2-((2-(2,6-dioxopiperidin-3-yl)-1,3-dioxoisoindolin-4-yl)amino)ethyl)-3,6,9,12-tetraoxatetradecanamide], at BRD9 (4 h), the BRD9 degradation entry was “strong degradation”. In addition, the BRD7 degradation result on BRD7 (4 h) is on record as “no BRD7 degradation”.
On to `COc1cc(-c2cn(C)c(=O)c3cnccc23)cc(OC)c1CN1CCN(C(=O)COCCOCCOCC(=O)N[C@H](C(=O)N2C[C@H](O)C[C@H]2C(=O)NCc2ccc(-c3scnc3C)cc2)C(C)(C)C)CC1` [Compound 25], for which the remaining activity at 1 µM was determined as 74% on BRD9 (4 h, read-out: BRD9 4 h (%)); 73% on BRD9 (16 h, read-out: BRD9 16 h (%)); 95% on BRD7 (4 h, read-out: BRD7 4 h (%)); 113% at BRD7 (16 h, read-out: BRD7 16 h (%)).
